Results taken from patent US9707220B2 (The United States of America, as represented by the …, priority 2005, dated 2017).
Values joined by “and” are separate entries in the source; they are usually repeats but may differ in a detail not shown here. Identical values can stand only once. Marks after values point to notes of the source that are not given here.

What was measured:
Type in all cases: in vivo, human
[1] = tested on: unmedicated, currently depressed patients meeting criteria for Major Depressive Disorder (MDD) or Bipolar Disorder (BD); assay: Example 1: double-blind randomized dose-finding study, 15-minute intravenous scopolamine infusions, MADRS depression severity in patients; design: key to MADRS score, Follow-up / MADRS score, Session 3, Pt. MEAN / MADRS score, Session 4, Pt. MEAN / MADRS score, Follow-up, Pt. MEAN / MADRS score, Post 2 μg/kg / MADRS score, Post 3 μg/kg / MADRS score, Post 4 μg/kg / MADRS score, Post 2 μg/kg, MEAN / MADRS score, Post 3 μg/kg, MEAN: Montgomery & Asberg Depression Rating Scale (MADRS) total score
Procedure: Prior to each infusion, a psychiatric interview was performed using the Montgomery & Asberg Depression Rating Scale (MADRS) to monitor depression severity across sessions. Participants were monitored continuously for the development of clinically relevant side effects. Sessions were scheduled a minimum of 3 days apart and a maximum of 5 days apart when possible. Follow-up psychiatric interviews were obtained when patients were available.
Comparisons also were made between MADRS scores obtained before and after each specific dose. […] Post evaluations for the last session were provided by the follow-up psychiatric interviews when available.

[2] = tested on: unmedicated, currently depressed patients meeting the DSM-IV criteria for Major Depressive Disorder (MDD) or Bipolar Disorder (BD); assay: Example 2: double-blind, placebo-controlled, randomized cross-over study, Hamilton Anxiety Scale
From the text: (§1) Session one was designed to be single-blind during which all subjects received a placebo infusion to allow for a baseline evaluation. The next six sessions were separated into two blocks of three sessions each; one block included a series of three placebo infusions (P Block) and the other a series of three scopolamine infusions (S Block). Individuals were randomized into either the P/S (placebo/scopolamine) series or the S/P (scopolamine/placebo) series, using a double-blind design. In total, all subjects received four placebo infusions and three scopolamine infusions. Prior to infusion, unstructured psychiatric interviews were completed using the Montgomery & Asberg Depression Rating Scale (MADRS) and the Hamilton Anxiety Scale to provide evaluations of depression and anxiety severity upon entering the study (i.e., baseline 1); following the first infusion as an assessment of placebo effects (i.e., baseline 2); after all infusions associated with block 1 (i.e., last evaluation block 1); and after all infusions associated with block 2 (i.e., last evaluation block 2) obtained during a follow-up psychiatric interview. Sessions were scheduled a minimum of 3 days apart and a maximum of 5 days apart when possible.
(§2) Patient diagnosis and features that contribute to prognosis, including history of response to conventional treatment, chronicity and comorbid anxiety disorders, are summarized in Table III.
(§3) Session one was designed to be single-blind during which all subjects received a placebo infusion to allow for a baseline evaluation in all subjects. Subsequently, individuals were randomized into either an P/S or S/P double-blind design whereby P is defined as a series of three sessions during which participants received placebo and S is defined as a series of three sessions during which participants received scopolamine. […] Prior to each infusion, unstructured psychiatric interviews were completed using the MADRS and the Hamilton Anxiety Scale. Sessions were scheduled a minimum of 3 days apart and a maximum of 5 days apart when possible. Follow-up psychiatric interviews were obtained to assess the effects of session seven. […] Repeated measures ANOVA was used to evaluate session differences, group differences and session X group effects. In the presence of significant ANOVA results, t-tests were used for within and between group comparisons to identify specific effects.

[3] = tested on: unmedicated, currently depressed patients meeting the DSM-IV criteria for Major Depressive Disorder (MDD) or Bipolar Disorder (BD); assay: Example 2: double-blind, placebo-controlled, randomized cross-over study, MADRS depression severity
From the text: as §1, §2, §3

[4] = both treatment groups, no change following placebo
[5] = 4.0 μg/kg iv, three infusions, p<0.005

Question: Which results are given for `CN1C2C[C@H](OC(=O)C(CO)c3ccccc3)CC1[C@H]1OC21` (stereo partly shown) [scopolamine]?
Answer: MADRS score, Follow-up ([1]; individual patient, follow-up interview after all four sessions): 37 and 16 and 2 and 9 and 14; MADRS score, Session 2 ([1]; individual patient, scored before the Session 2 infusion, after the Session 1 dose, iv 2, 3 or 4 μg/kg or placebo in random order, sessions 3-5 days apart): 36^d and 44^a and 25^a and 32^C and 18^b and 29^C and 15^d; MADRS score, Session 3 ([1]; individual patient, scored before the Session 3 infusion, after two earlier sessions, doses in random order): 35^b and 34^d and 31^b and 4^C and 25^a and 14^a and 22^d and 7^a; MADRS score, Session 4 ([1]; individual patient, scored before the Session 4 infusion, after three earlier sessions, doses in random order): 35^a and 22^b and 32^d and 8^d and 28^d and 11^d and 17^a and 7^b; MADRS score, Post 2 μg/kg ([1]; individual patient, scored in the next session, 3 to 5 days after 2 μg/kg iv): 37 and 32 (2×) and 4 and 14 and 29 and 35; MADRS score, Post 3 μg/kg ([1]; individual patient, scored in the next session, 3 to 5 days after 3 μg/kg iv): 44 and 25 (2×) and 8 and 18 and 22 and 15 and 36; MADRS score, Post 4 μg/kg ([1]; individual patient, scored in the next session, 3 to 5 days after 4 μg/kg iv): 22 and 16 and 2 and 9 and 14 and 17 and 7 and 35; MADRS score, Session 3, Pt. MEAN ([1]; mean of 8 patients, irrespective of session dose): 21.5; MADRS score, Session 4, Pt. MEAN ([1]; mean of 8 patients, irrespective of session dose, significantly less than baseline, p < 0.05): 20.0*; MADRS score, Follow-up, Pt. MEAN ([1]; mean of patients with follow-up, significantly less than baseline, p < 0.05): 15.6*; MADRS scores post 4.0 μg/kg compared to baseline and pre-4.0 μg/kg measures ([1]; p=0.0015 vs baseline, p=0.018 vs pre-dose): significantly lower; MADRS scores following session four compared to session one baseline ([1]; patient group, post-hoc t-test, p=0.01): significantly lower; MADRS scores following session three compared to session one baseline ([1]; patient group, post-hoc t-test, p=0.03): significantly lower; Antidepressant effect, MADRS across sessions (summary) ([1]; patient group, effect primarily after the 4.0 μg/kg dose): robust and rapid antidepressant effects; MADRS score, Post 2 μg/kg, MEAN ([1]; patient mean, baseline mean 29.00, pre-dose mean 22.38): 26.14; MADRS score, Post 4 μg/kg, MEAN ([1]; patient mean, baseline mean 29.00, pre-dose mean 23.25, p = 0.0015 vs baseline, p = 0.018 vs pre-session): 15.25^#*; MADRS score, Post 3 μg/kg, MEAN ([1]; patient mean, baseline mean 29.00, pre-dose mean 27.63): 24.13; MADRS scores post 2.0 and 3.0 μg/kg compared to baseline and pre-dose ([1]; t-tests, patient group): No other differences were significant; Hamilton Anxiety rating, P/S group at end of Block 2 (scopolamine) vs baseline 1, baseline 2 and end of Block 1 ([2]; 4.0 μg/kg iv, three infusions, p<0.001, p=0.02, p=0.002): significantly lower; Hamilton Anxiety rating, S/P group at end of Block 1 (scopolamine) vs baseline measures ([2]; 4.0 μg/kg iv, three infusions, p<0.01): significantly lower; Hamilton Anxiety score, S/P group vs P/S group at last evaluation of Block 1 ([2]; 4.0 μg/kg iv, three infusions, t=7.29, p=0.04): significantly lower; Anxiety symptoms (mean Hamilton Anxiety scores, FIG. 3) following treatment [2, 4]: significant improvement; Hamilton Anxiety rating, S/P group at end of Block 2 (placebo after scopolamine) vs baseline ([2]; persistence of effect, p=0.01): significantly lower; MADRS depression severity, P/S group at end of Block 2 (scopolamine) vs baseline measures and end of Block 1 [3, 5]: significantly lower; MADRS depression severity, S/P group at end of Block 1 (scopolamine) vs baseline 1 and baseline 2 [3, 5]: significantly lower; MADRS depression severity, S/P group vs P/S group at last evaluation of Block 1 ([3]; 4.0 μg/kg iv, three infusions, t=5.3, p<0.0001): significantly lower; Depressive symptoms (mean MADRS scores, FIG. 2) following treatment [3, 4]: significant improvement; MADRS depression severity, S/P group at end of Block 2 (placebo after scopolamine) vs baseline measures ([3]; persistence of effect, p<0.005): significantly lower
